Reference: the supplement of paper PMC5579334
± gives the standard deviation of the averaged measurements.

Assays:
[1] = tested on: HSC1 (primary human Schwann cells); test: drug sensitivity score (DSS, CellTox-Green cytotoxicity, 72 h) (DSS (dimensionless)); higher = more cytotoxic; extreme values may be limits of the assay
Summary of the method: (§1)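 MPNST cell lines and primary human Schwann cells were incubated 72 h at 37 °C in 384-well plates holding five 10-fold compound dilutions. CellTox-Green was added before seeding at a final 1:1000 dilution and reported fluorescence from DNA released by disrupted cells. Signals were scaled to vehicle and positive-control wells, and cultures failing plate quality control were dropped. Drug sensitivity score and relative IC50 come from four-parameter logistic fits, with IC50 censored at the top concentration.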

S1507-2 [2] = test: as above
Summary of the method: as §1

ST8814 [3] = test: as above
Summary of the method: as §1

HS-PSS [4] = test: as above
Summary of the method: as §1

STS26T [5] = test: as above
Summary of the method: as §1

[6] = tested on: HSC2 (primary human Schwann cells); test: as above
Summary of the method: as §1

[7] = tested on: HSC1 (primary human Schwann cells); test: % inhibition of CellTiter-Glo viability at highest tested concentration (72 h), relative to DMSO and benzethonium chloride controls; higher = more inhibition
Summary of the method: (§2)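 MPNST cell lines and primary human Schwann cells (750–1000 cells per well) went into 384-well plates preprinted with each compound at five concentrations in 10-fold steps. Plates were incubated 72 h at 37 °C, 5% CO2. Viability was read as CellTiter-Glo ATP luminescence, scaled between vehicle and positive-control wells, with duplicates averaged where present. Percent inhibition is at the top concentration; drug sensitivity score and relative IC50 (censored at top concentration) come from four-parameter logistic fits.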

S1507-2 [8] = test: as above
Summary of the method: as §2

ST8814 [9] = test: as above
Summary of the method: as §2

S462 [10] = test: as above
Summary of the method: as §2

YST-1 [11] = test: as above
Summary of the method: as §2

HS-PSS [12] = test: as above
Summary of the method: as §2

STS26T [13] = test: as above
Summary of the method: as §2

HS-Sch-2 [14] = test: as above
Summary of the method: as §2

[15] = tested on: HSC2 (primary human Schwann cells); test: as above
Summary of the method: as §2

[16] = tested on: HSC1 (primary human Schwann cells); test: drug sensitivity score (DSS, CellTiter-Glo viability, 72 h) (DSS (dimensionless)); higher = more sensitive; extreme values may be limits of the assay
Summary of the method: as §2

S1507-2 [17] = test: as above
Summary of the method: as §2

ST8814 [18] = test: as above
Summary of the method: as §2

S462 [19] = test: as above
Summary of the method: as §2

YST-1 [20] = test: as above
Summary of the method: as §2

HS-PSS [21] = test: as above
Summary of the method: as §2

STS26T [22] = test: as above
Summary of the method: as §2

HS-Sch-2 [23] = test: as above
Summary of the method: as §2

[24] = tested on: HSC2 (primary human Schwann cells); test: as above
Summary of the method: as §2

## O=C(CCCCCCC(=O)Nc1ccc([C@H]2O[C@@H](CSc3nc(-c4ccccc4)c(-c4ccccc4)o3)C[C@@H](c3ccc(CO)cc3)O2)cc1)NO [Tubacin] (max concentration tested 10000 nM)
[1]
  drug sensitivity score: 0
S1507-2 [2]
  drug sensitivity score: 0.0428 ± 0.06
ST8814 [3]
  drug sensitivity score: 2.33
HS-PSS [4]
  drug sensitivity score: 0.31
STS26T [5]
  drug sensitivity score: 3.25
[6]
  drug sensitivity score: 0
[7]
  % inhibition: 70%
S1507-2 [8]
  % inhibition: 67.9 ± 7.1%
ST8814 [9]
  % inhibition: 64.2%
S462 [10]
  % inhibition: 64.9 ± 20%
YST-1 [11]
  % inhibition: 56.1%
HS-PSS [12]
  % inhibition: 48%
STS26T [13]
  % inhibition: 60.2%
HS-Sch-2 [14]
  % inhibition: 63.7%
[15]
  % inhibition: 56.6%
[16]
  drug sensitivity score: 3.73
S1507-2 [17]
  drug sensitivity score: 3.73 ± 1
ST8814 [18]
  drug sensitivity score: 3.74
S462 [19]
  drug sensitivity score: 3.54 ± 1.2
YST-1 [20]
  drug sensitivity score: 4.41
HS-PSS [21]
  drug sensitivity score: 4.53
STS26T [22]
  drug sensitivity score: 3.13
HS-Sch-2 [23]
  drug sensitivity score: 3.9
[24]
  drug sensitivity score: 3.24

## Cn1cc(C2=C(c3cn(C4CCN(Cc5ccccn5)CC4)c4ccccc34)C(=O)NC2=O)c2ccccc21 [Enzastaurin] (max concentration tested 10000 nM)
[1]
  drug sensitivity score: 0
S1507-2 [2]
  drug sensitivity score: 0
ST8814 [3]
  drug sensitivity score: 0
HS-PSS [4]
  drug sensitivity score: 0
STS26T [5]
  drug sensitivity score: 0.0176
[6]
  drug sensitivity score: 0
[7]
  % inhibition: 21.8%
S1507-2 [8]
  % inhibition: 26.9 ± 3.6%
ST8814 [9]
  % inhibition: 12.8%
S462 [10]
  % inhibition: 10.8 ± 2.6%
YST-1 [11]
  % inhibition: -1.13%
HS-PSS [12]
  % inhibition: 11.3%
STS26T [13]
  % inhibition: 19.9%
HS-Sch-2 [14]
  % inhibition: 12.3%
[15]
  % inhibition: 25.1%
[16]
  drug sensitivity score: 1.32
S1507-2 [17]
  drug sensitivity score: 3.15 ± 2.5
ST8814 [18]
  drug sensitivity score: 0.0668
S462 [19]
  drug sensitivity score: 0.0347 ± 0.049
YST-1 [20]
  drug sensitivity score: 0
HS-PSS [21]
  drug sensitivity score: 3.43
STS26T [22]
  drug sensitivity score: 1.09
HS-Sch-2 [23]
  drug sensitivity score: 0.28
[24]
  drug sensitivity score: 1.06

## C=CC[C@@H]1/C=C(\C)C[C@H](C)C[C@H](OC)[C@H]2O[C@@](O)(C(=O)C(=O)N3CCCC[C@H]3C(=O)O[C@H](/C(C)=C/[C@@H]3CC[C@@H](O)[C@H](OC)C3)[C@H](C)[C@@H](O)CC1=O)[C@H](C)C[C@@H]2OC [Tacrolimus] (max concentration tested 10000 nM)
[1]
  drug sensitivity score: 0
S1507-2 [2]
  drug sensitivity score: 0
ST8814 [3]
  drug sensitivity score: 0
HS-PSS [4]
  drug sensitivity score: 0
STS26T [5]
  drug sensitivity score: 0
[6]
  drug sensitivity score: 0
[7]
  % inhibition: 19.9%
S1507-2 [8]
  % inhibition: 6.29 ± 12%
ST8814 [9]
  % inhibition: 13.4%
S462 [10]
  % inhibition: 1.38 ± 2.8%
YST-1 [11]
  % inhibition: 7.06%
HS-PSS [12]
  % inhibition: 8.62%
STS26T [13]
  % inhibition: 8.77%
HS-Sch-2 [14]
  % inhibition: -0.54%
[15]
  % inhibition: 5.26%
[16]
  drug sensitivity score: 0.469
S1507-2 [17]
  drug sensitivity score: 0.168 ± 0.24
ST8814 [18]
  drug sensitivity score: 0.177
S462 [19]
  drug sensitivity score: 0
YST-1 [20]
  drug sensitivity score: 0
HS-PSS [21]
  drug sensitivity score: 0
STS26T [22]
  drug sensitivity score: 0
HS-Sch-2 [23]
  drug sensitivity score: 0
[24]
  drug sensitivity score: 0

## CC(C)C[C@H](NC(=O)[C@@H](COC(C)(C)C)NC(=O)[C@H](Cc1ccc(O)cc1)NC(=O)[C@H](CO)NC(=O)[C@H](Cc1c[nH]c2ccccc12)NC(=O)[C@H](Cc1cnc[nH]1)NC(=O)[C@@H]1CCC(=O)N1)C(=O)N[C@@H](CCCNC(=N)N)C(=O)N1CCC[C@H]1C(=O)NNC(N)=O [Goserelin] (max concentration tested 10000 nM)
[1]
  drug sensitivity score: 0
S1507-2 [2]
  drug sensitivity score: 0.454 ± 0.64
ST8814 [3]
  drug sensitivity score: 0
HS-PSS [4]
  drug sensitivity score: 0
STS26T [5]
  drug sensitivity score: 0
[6]
  drug sensitivity score: 0
[7]
  % inhibition: 6.11%
S1507-2 [8]
  % inhibition: -0.69 ± 5%
ST8814 [9]
  % inhibition: 4.22%
S462 [10]
  % inhibition: 0.735 ± 5%
YST-1 [11]
  % inhibition: -0.8%
HS-PSS [12]
  % inhibition: -4.24%
STS26T [13]
  % inhibition: 7.86%
HS-Sch-2 [14]
  % inhibition: 11.2%
[15]
  % inhibition: -4.29%
[16]
  drug sensitivity score: 0
S1507-2 [17]
  drug sensitivity score: 0
ST8814 [18]
  drug sensitivity score: 0
S462 [19]
  drug sensitivity score: 0
YST-1 [20]
  drug sensitivity score: 0
HS-PSS [21]
  drug sensitivity score: 0
STS26T [22]
  drug sensitivity score: 0
HS-Sch-2 [23]
  drug sensitivity score: 0.06
[24]
  drug sensitivity score: 0

## CO[C@H]1C[C@@H]2CC[C@@H](C)[C@@](O)(O2)C(=O)C(=O)N2CCCC[C@H]2C(=O)O[C@H]([C@H](C)C[C@@H]2CC[C@@H](OC(=O)C(C)(CO)CO)[C@H](OC)C2)CC(=O)[C@H](C)/C=C(\C)[C@@H](O)[C@@H](OC)C(=O)[C@H](C)C[C@H](C)/C=C/C=C/C=C/1C [Temsirolimus] (max concentration tested 100 nM)
[1]
  drug sensitivity score: 0
S1507-2 [2]
  drug sensitivity score: 0.915 ± 1.3
ST8814 [3]
  drug sensitivity score: 0
HS-PSS [4]
  drug sensitivity score: 0
STS26T [5]
  drug sensitivity score: 0
[6]
  drug sensitivity score: 0
[7]
  % inhibition: 47%
S1507-2 [8]
  % inhibition: 28.4 ± 1.3%
ST8814 [9]
  % inhibition: 23.2%
S462 [10]
  % inhibition: 31.8 ± 11%
YST-1 [11]
  % inhibition: 46.1%
HS-PSS [12]
  % inhibition: 30.8%
STS26T [13]
  % inhibition: 47.2%
HS-Sch-2 [14]
  % inhibition: 29.2%
[15]
  % inhibition: 51.2%
[16]
  drug sensitivity score: 17.5
S1507-2 [17]
  drug sensitivity score: 7.14 ± 2.6
ST8814 [18]
  drug sensitivity score: 6.83
S462 [19]
  drug sensitivity score: 6.03 ± 0.88
YST-1 [20]
  drug sensitivity score: 9.18
HS-PSS [21]
  drug sensitivity score: 7.73
STS26T [22]
  drug sensitivity score: 14.4
HS-Sch-2 [23]
  drug sensitivity score: 5.67
[24]
  drug sensitivity score: 16.5

## O=C(CCBr)N1CCN(C(=O)CCBr)CC1 [Pipobroman] (max concentration tested 10000 nM)
[1]
  drug sensitivity score: 0
S1507-2 [2]
  drug sensitivity score: 0
ST8814 [3]
  drug sensitivity score: 0
HS-PSS [4]
  drug sensitivity score: 0
STS26T [5]
  drug sensitivity score: 0
[6]
  drug sensitivity score: 0
[7]
  % inhibition: 0.741%
S1507-2 [8]
  % inhibition: -11.3 ± 2.3%
ST8814 [9]
  % inhibition: -3.56%
S462 [10]
  % inhibition: -17 ± 7.2%
YST-1 [11]
  % inhibition: 4.98%
HS-PSS [12]
  % inhibition: 1.73%
STS26T [13]
  % inhibition: -2.55%
HS-Sch-2 [14]
  % inhibition: 9.93%
[15]
  % inhibition: 0.945%
[16]
  drug sensitivity score: 0
S1507-2 [17]
  drug sensitivity score: 0
ST8814 [18]
  drug sensitivity score: 0
S462 [19]
  drug sensitivity score: 0
YST-1 [20]
  drug sensitivity score: 0
HS-PSS [21]
  drug sensitivity score: 0
STS26T [22]
  drug sensitivity score: 0
HS-Sch-2 [23]
  drug sensitivity score: 0
[24]
  drug sensitivity score: 0
